The text below walks through data of patent US8835500B2, “Pharmaceutical formulations of amyloid inhibiting compounds” (BHI Limited Partership, priority 2003, dated 2014).

The nature of data set [1]: Single rising oral dose pharmacokinetics of NC-758 in healthy young and elderly male volunteers (Example 7). The data set is classed as in vivo, human. The following applies: for Tmax: median. From the text:
(§1) In the following examples and elsewhere herein, terms are as defined below. The pharmacokinetic parameters were derived by non-compartmental analysis using WinNonlin Version 2.1. • Cmax—the maximum observed plasma concentration. • Tmax—the time of occurrence of Cmax. • AUC0-t—the area under the plasma concentration versus time curve from time zero to the last sampling time at which concentrations were at or above the limit of quantification, calculated by the linear trapezoidal rule. • AUC∞—the area under the plasma concentrations versus time curve from time zero to infinity, calculated from AUC0-t+(Clast/λz), where Clast is the last observed quantifiable concentration and λz is the apparent terminal rate constant. • t1/2—the apparent terminal half-life, calculated from 1n 2λz.
The pharmacokinetic profile and the effect of food on single rising oral doses of 3-APS free acid (modified-release enteric-coated tablet, as described in Table 3 above, hereinafter “NC-758”) in healthy male young (18-45 years) volunteers was determined. The pharmacokinetics of a single oral dose of NC-758 was also determined in a group of healthy male elderly (≧55 years old) volunteers. The test was a randomized, double-blind, placebo-controlled study to assess the pharmacokinetic profile of 4 single rising oral doses of NC-758 in healthy young (18-45 years) male subjects. Blood samples were collected during 24 h following dosing. Plasma concentrations of 3-APS were determined using a validated LC-MS/MS method.

Data set [2] is described as follows: Single oral dose pharmacokinetics of NC-758-1 in healthy elderly volunteers (Example 9). The data set is classed as in vivo, human. The following applies: elderly (≧55 years) male and female subjects, fasted; for Tmax: median.
Source text: as §1
The pharmacokinetic profile and the effect of food on single oral doses of 3-APS free acid (modified-release enteric-coated tablet as described in Table 5 above, hereinafter “NC-758-1”) in healthy male and female elderly (≧55 years) volunteers. The test was an open label, three-period crossover study to assess the pharmacokinetic profile of 3 single oral doses of NC-758-1 in healthy elderly (≧55 years) male and female subjects. The blood samples were collected during 24 h following dosing. Plasma concentrations of 3-APS were determined using a validated LC-MS/MS method.

The nature of data set [3]: Pharmacokinetics of NC-758-1 in mild to moderate Alzheimer's Disease patients, 12 weeks BID (Example 10). It is filed as in vivo. The following applies: human, plasma, oral, AD patients; for AUC(0-inf): only patients with estimable elimination rate constant; for Tmax: median.
Source text: as §1
A multicenter, randomized, double-blind, placebo-controlled and parallel designed study has been completed with NC-758-1 from Table 5 above in patients suffering from mild to moderate Alzheimer's Disease (AD). This study included assessing the pharmacokinetic/pharmacodynamic profile in AD patients.
A total of fifty-eight (58) mild to moderate AD patients (MMSE scores=13 to 26) were enrolled from 6 centers in the United States. Patients were randomized to receive in 1:1:1:1 ratio of NC-758-1 at 50, […], 150 mg BID or placebo BID for 12 weeks. Study medication was administered orally (tablet). Each patient was evaluated on 6 occasions at screening, baseline [Week 0], weeks 2, 4, 8 and 12. Blood samples were collected from each patient prior to dosing and at specified time points through 12 h post-dose after the first dose (Week 0) and the last dose (Week 12). Blood samples were also collected prior to the first dose of the day during Week 2, 4 and 8 visits.

Data set [4] can be described thus: Hygroscopic nature of the active ingredient. It is filed as physicochemical.
Another data set concerns CSF Aβ42. Nature of the data set: CSF Aβ42 and Aβ42/Aβ40 ratio in mild-to-moderate AD patients. It is filed as in vivo, human. The method, then: FIG. 1 Change from Baseline CSF Aβ42 versus 3-APS doses
FIG. 2 Effect of 3-APS on CSF Aβ42/40 Ratio in Mild-to-Moderate AD Patients—Placebo vs. 150 mg BID

For data set [5] the following is noted: dog, in vivo. The method, then:
(§2) Furthermore, the non-hygroscopic nature of the acid form makes it desirable as active pharmaceutical ingredient. To further protect against any possible gastrointestinal intolerance that could result from the acid form, the tablets were enteric-coated and a modified-release agent was added to control any rapid release of the drug in the stomach and the intestine, respectively.

Data set [6] can be described thus: Crossing of the blood/brain barrier. The following applies: in vivo. Set-up: species or system human.
Data set [7] can be described thus: Pharmacokinetics of NC-758-1 in mild to moderate Alzheimer's Disease patients, 12 weeks BID (Example 10). The following applies: human, plasma, oral, AD patients; for Tmax: median. The data set is classed as in vivo.
Data set [8] can be described thus: Part I: multiple rising oral dose pharmacokinetics of NC-758 in healthy young and elderly subjects (Example 8). The following applies: fasted; for Tmax: median. It is filed as in vivo, human.
Source text: as §1
The pharmacokinetic profile of multiple rising oral doses of 3-APS free acid (NC-758 of Table 3 above) in healthy male young subjects (18-45 years) and healthy male and female elderly (≧55 years) subjects was assessed. The pharmacokinetic profile of a titrated multiple oral rising dose regimen of NC-758 was also assessed in one group of healthy male young (18-45 years) subjects. […] Part I was a randomized, double-blind, placebo-controlled study to assess the pharmacokinetic profile of 2 multiple rising oral doses of NC-758 in healthy young (18-45 years) male subjects. […] In Part I, blood samples were collected through 24 h after the first dose on Day 1, before each morning dose on Days 2 to 11, and through 48 h after the final dose on Day 12. For Part II, blood samples were collected through 36 and 48 h, respectively. Plasma concentrations of 3-APS were determined using a validated LC-MS/MS method.

Data set [9] is described as follows: Gastrointestinal symptoms after administration of solid dosage form (capsules). The data set is classed as in vivo. The method, then: as §2
Setting [10] is: 200 mg dose, elderly vs. young (Tables 9 and 10).
Where [11] appears, read: 50 mg, Alzhemed (NC-758-1) 50 mg BID, Week 0 (single dose), mean.
The mark [12] stands for this setting: 150 mg, Alzhemed (NC-758-1) 150 mg BID, Week 0 (single dose), mean.

Usually Tmax stands for the time from dosing to the highest level. The AUC(0-inf) is the area under the concentration-time curve extrapolated to infinity. A word on the Cmax: it is the peak of the concentration-time curve. Take `NCCCS(=O)(=O)O` [3-APS, 3-amino-1-propanesulfonic acid]: the “AUC0-t greater in elderly subjects compared to young subjects” value in data set [1] (setting [10]) was “approximately 70%”. The “Cmax greater in elderly subjects compared to young subjects” value in data set [1] (setting [10]) was “approximately 70%”. In addition, the Tmax came to 5 h in data set [1] (NC-758 single oral 200 mg, elderly (>55 years) male subjects, fasted); 5 h in data set [1] (NC-758 single oral 200 mg, young (18-45 years) male subjects, fasted); 5 h in data set [1] (NC-758 single oral 300 mg, young (18-45 years) male subjects, fasted); 5 h in data set [1] (human, plasma, NC-758 single oral 100 mg, young (18-45 years) male subjects, fasted, read-out: Tmax); 5 h in data set [2] (NC-758-1 single oral 50 mg); 5 h in data set [2] (NC-758-1 single oral 100 mg). For the same compound, the Tmax in data set [2] (NC-758-1 single oral 150 mg) was 5 h; in [3] (50 mg, Alzhemed (NC-758-1) 50 mg BID, Week 0 (single dose)) it was about 6 h; in [3] (150 mg, Alzhemed (NC-758-1) 150 mg BID, Week 0 (single dose)) it was about 6 h; in data set [7] (50 mg, Alzhemed (NC-758-1) 50 mg BID, Week 12 (repeated)), 3 h; in data set [7] (100 mg, Alzhemed (NC-758-1) 100 mg BID, Week 0 (single dose)), about 4.7 h; in data set [7] (100 mg, Alzhemed (NC-758-1) 100 mg BID, Week 12 (repeated)) it was 3.5 h. Moreover, the Tmax in data set [7] (150 mg, Alzhemed (NC-758-1) 150 mg BID, Week 12 (repeated)) was determined as 3 h; in data set [8] (NC-758 200 mg BID, Day 1, elderly (≧55 years) male and female subjects), 6 h; in data set [8] (NC-758 200 mg BID, Day 12, young (18-45 years) male subjects) it was 4 h; in data set [8] (both sexes, human, plasma, oral, 200 mg, NC-758 200 mg BID, Day 12, elderly (≧55 years) male and female subjects, read-out: Tmax), 5 h; in [8] (male, human, plasma, oral, 100 mg, NC-758 100 mg BID, Day 1, young (18-45 years) male subjects, read-out: Tmax), 6 h; in data set [8] (male, human, plasma, oral, 100 mg, NC-758 100 mg BID, Day 12, young (18-45 years) male subjects, read-out: Tmax) it was 2.5 h. Also, the Tmax in [8] (male, human, plasma, oral, 200 mg, NC-758 200 mg BID, Day 1, young (18-45 years) male subjects, read-out: Tmax) was found to be 4 h. Besides, the AUC(0-inf) in data set [1] (human, plasma, NC-758 single oral 200 mg, elderly (>55 years) male subjects, fasted, calculated for one individual only) is 5760 ng·h/mL; in data set [3] (setting [11]) it was about 1400 ng·h/mL; in data set [3] (setting [12]) it was about 3420 ng·h/mL; in data set [7] (100 mg, Alzhemed (NC-758-1) 100 mg BID, Week 0 (single dose), mean, only patients with estimable elimination rate constant) it was about 2570 ng·h/mL. Further, in data set [2] (NC-758-1 single oral 150 mg, mean, only subjects with estimable elimination rate constant), the “AUC∞” value was found to be 4497 ng·h/mL. The AUC(0-t) in data set [3] (setting [11]) was about 1320 ng·h/mL; in data set [7] (50 mg, Alzhemed (NC-758-1) 50 mg BID, Week 12 (repeated), mean, read-out: AUC0-t (AUCss for Week 12)), 1980 ng·h/mL; in [7] (100 mg, Alzhemed (NC-758-1) 100 mg BID, Week 0 (single dose), mean, read-out: AUC0-t), about 2470 ng·h/mL; in [7] (100 mg, Alzhemed (NC-758-1) 100 mg BID, Week 12 (repeated), mean, read-out: AUC0-t (AUCss for Week 12)), 2590 ng·h/mL; in data set [7] (150 mg, Alzhemed (NC-758-1) 150 mg BID, Week 0 (single dose), mean, read-out: AUC0-t), about 2790 ng·h/mL; in data set [7] (150 mg, Alzhemed (NC-758-1) 150 mg BID, Week 12 (repeated), mean, read-out: AUC0-t (AUCss for Week 12)), 3570 ng·h/mL. The AUC(0-t) in data set [8] (human, plasma, oral, NC-758 100 mg BID, Day 1, young (18-45 years) male subjects, mean, read-out: AUC0-12 h) came out at 1330 ng·h/mL. Besides, the Cmax is about 310 ng/mL in data set [3] (setting [11]); about 624 ng/mL in [3] (setting [12]); 639 ng/mL in data set [3] (150 mg, Alzhemed (NC-758-1) 150 mg BID, Week 12 (repeated), mean); 451 ng/mL in data set [7] (50 mg, Alzhemed (NC-758-1) 50 mg BID, Week 12 (repeated), mean); about 618 ng/mL in data set [7] (100 mg, Alzhemed (NC-758-1) 100 mg BID, Week 0 (single dose), mean); 538 ng/mL in data set [7] (100 mg, Alzhemed (NC-758-1) 100 mg BID, Week 12 (repeated), mean). For the same compound, in data set [4], the hygroscopic nature entry is “non-hygroscopic”. In addition, in the data set with CSF Aβ42 (CSF, mild-to-moderate AD patients, FIGS. 2, 3 and 4), the “ratio of Aβ42/Aβ40” value was “reduced the ratio of Aβ42/Aβ40”. For the same compound, the “baseline CSF Aβ42” value with CSF Aβ42 (FIG. 1) is “reduced baseline CSF Aβ42”. In addition, the tolerability result in data set [5] is listed as “better tolerated than the sodium salt form”. Besides, the “crossing of the blood/brain barrier” value in [6] is “crossed the blood/brain barrier”.

For the compound `NCCCS(=O)(=O)[O-].[Na+]` [3-amino-1-propanesulfonic acid, sodium salt], the “gastrointestinal symptoms (i.e. nausea and vomiting)” value in data set [9] was “associated with gastrointestinal symptoms”.
